The values that follow come from article PMC4891693, “Discovery of prenylated flavonoids with dual activity against influenza virus and Streptococcus pneumoniae” (Scientific Reports, 2016).

Data set [1] concerns human erythrocytes.
In data set [2] the test system is human erythrocytes. The source holds these as a separate data set.
Data set [3] has as its system human erythrocytes. The data set can be described thus: Interference with hemagglutination in the viral HA assay.
A short description of data set [4]: in vitro. As to conditions: dog.
For data set [5], the target named is influenza virus A/WSN/33 NA (Influenza A virus, UniProt P03470). The data set can be described thus: biochemical.
Chain of influenza virus A/WSN/33 NA (P03470 whole entry, looked up): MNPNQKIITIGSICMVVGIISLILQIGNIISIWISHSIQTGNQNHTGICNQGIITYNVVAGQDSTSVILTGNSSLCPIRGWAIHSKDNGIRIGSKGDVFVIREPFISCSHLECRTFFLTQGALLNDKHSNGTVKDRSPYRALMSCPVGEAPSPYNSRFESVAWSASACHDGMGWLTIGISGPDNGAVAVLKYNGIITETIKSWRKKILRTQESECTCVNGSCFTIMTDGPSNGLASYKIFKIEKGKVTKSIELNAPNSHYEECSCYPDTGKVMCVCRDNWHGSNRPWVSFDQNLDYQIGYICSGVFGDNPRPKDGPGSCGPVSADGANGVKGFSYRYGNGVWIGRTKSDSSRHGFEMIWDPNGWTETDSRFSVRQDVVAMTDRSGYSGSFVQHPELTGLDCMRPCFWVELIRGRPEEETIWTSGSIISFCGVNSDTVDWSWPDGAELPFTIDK
A short description of data set [6]: in vitro. The settings on record: human.
The subject of data set [7] is NA of S. pneumoniae DSM20566 (precipitated bacterial proteins). The data set can be described thus: Hemagglutination (HA)-based NA inhibition assay, bacterial. In kind it is biochemical, Streptococcus pneumoniae. The settings on record: pure compounds; total protein of DSM20566; human erythrocytes; highest tested 100 μM. An excerpt:
Inhibition of pneumococcal NAs circumvents hemagglutination.

Values after ≈ are worked out from the molar mass of the structure shown. Values joined by “and” are separate entries in the source; they are usually repeats but may differ in a detail not shown here. Equal values may be shown once. Read-outs that look alike come from different tables or passages of the source. Some results are limits rather than exact numbers.

Usually IC50 stands for the concentration needed to halve the response being measured. A higher IC50 goes with weaker potency in that assay. With `CC(C)=CCc1cc(C2CC(=O)c3c(O)cc(O)cc3O2)ccc1O` (stereo not drawn) [Compound 20, 4',5,7-trihydroxy-3'-prenylflavanone], the “sample concentrations provoking induction of erythrocyte lysis in bacterial HA assay” value in data set [1] (human) is 100 or no. Besides, the “sample concentrations provoking induction of erythrocyte lysis in viral HA assay” value in data set [2] (human) is given as 100 or no. The “sample concentrations provoking prevention of virus-induced hemagglutination in viral HA assay” value in data set [3] is reported as “no”. Also, the CC50 at 72 h in data set [4] is 67.9 ± 2.62 µM; in data set [6] it was above 100 µM. This molecule also showed an IC50 in data set [5] above 100 µM.
On to `CC1=C[C@H](c2c(O)ccc([C@@H]3CC(=O)c4c(O)cc(O)cc4O3)c2O)[C@@H](C(=O)c2ccc(O)cc2O)[C@H](c2ccc(O)cc2O)C1` [Compound 6, kuwanon L], for which the “sample concentrations provoking induction of erythrocyte lysis in bacterial HA assay” value in data set [1] (human) stood at 100 µM. Moreover, in data set [2] (human), the “sample concentrations provoking induction of erythrocyte lysis in viral HA assay” value came to 100 µM. The “MIC in HA assay against S. pneumoniae DSM20566” value (from here on “MIC in HA assay”) in data set [7] is 31.6 µM and 31.6 ± 0.00 µM. In data set [3], the “sample concentrations provoking prevention of virus-induced hemagglutination in viral HA assay” value was found to be 31.6 µM. Moreover, the CC50 in data set [4] was above 100 µM; in data set [6] it was 94.4 ± 4.73 µM. This molecule also returned a 50% inhibitory concentration (IC50) in data set [5] of 37.2 ± 10.6 µM.
Consider `CC(C)=CCC/C(C)=C/Cc1c(O)cc(O)c2c1OC(c1ccccc1)CC2=O` (racemic) [Compound 24, (R,S)-8-geranyl-5,7-dihydroxyflavanone], for which, in data set [1] (human), the “sample concentrations provoking induction of erythrocyte lysis in bacterial HA assay” value was 100 µM. Further, the “sample concentrations provoking induction of erythrocyte lysis in viral HA assay” value in data set [2] is “no”. For the same molecule, the “MIC in HA assay” value in data set [7] came to 3.16 ± 0.00 µM (≈ 1.24 µg/mL). The “sample concentrations provoking prevention of virus-induced hemagglutination in viral HA assay” value in data set [3] was found to be 100 µM. In addition, the CC50 at 72 h is 60.6 ± 3.81 µM in data set [4] and above 100 µM in data set [6]. The molecule also registered a 50% inhibitory concentration (IC50) in data set [5] above 100 µM.
As to `CC(C)=CCc1c(O)c(CC=C(C)C)c2c(c1O)C(=O)C[C@@H](c1ccc(O)cc1)O2` [Compound 28, 6,8-diprenylnaringenin], the “sample concentrations provoking induction of erythrocyte lysis in bacterial HA assay” value in data set [1] (human) is 100 µM. In addition, the “sample concentrations provoking induction of erythrocyte lysis in viral HA assay” value in data set [2] was “no”. In addition, the “MIC in HA assay” value in data set [7] was found to be 15.4 ± 10.8 µM (≈ 6.29 µg/mL). The “sample concentrations provoking prevention of virus-induced hemagglutination in viral HA assay” value in data set [3] is “no”. Also, the CC50 at 72 h in data set [4] turned out to be 15.8 ± 7.58 µM; in data set [6], 59.1 ± 19.8 µM. In data set [5], the half-inhibitory concentration (IC50) is above 100 µM.
Consider `COc1ccc(C2CC(=O)c3c(cc(O)c(CC=C(C)C)c3O)O2)cc1` (stereo not drawn) [Compound 19], for which, in data set [1] (human), the “sample concentrations provoking induction of erythrocyte lysis in bacterial HA assay” value fell in the range of 31.6 to 100 µM. For the same molecule, the “sample concentrations provoking induction of erythrocyte lysis in viral HA assay” value in data set [2] is recorded as “no”. The “sample concentrations provoking prevention of virus-induced hemagglutination in viral HA assay” value in data set [3] is “no”. For the same molecule, the results for the CC50 at 72 h in data set [4] and in data set [6] were 50.5 ± 6.32 µM and above 100 µM, respectively. Besides, the IC50 in data set [5] was above 100 µM.
In the case of `COc1cc(C2CC(=O)c3c(O)cc(O)cc3O2)ccc1O` (racemic) [Compound 9, (±)-homoeriodictyol], in data set [1], the “sample concentrations provoking induction of erythrocyte lysis in bacterial HA assay” value is listed as “no”. In addition, in data set [2], the “sample concentrations provoking induction of erythrocyte lysis in viral HA assay” value is “no”. In addition, in data set [3], the “sample concentrations provoking prevention of virus-induced hemagglutination in viral HA assay” value was “no”.
In the case of `CC(C)=CCc1c(O)cc(CCc2ccccc2)c(CC=C(C)C)c1O` [Compound 33, 2,4-bis(3-methyl-2-buten-1-yl)-5-(2-phenylethyl)-1,3-benzenediol], the “sample concentrations provoking induction of erythrocyte lysis in bacterial HA assay” value in data set [1] was “no”. Also, the “sample concentrations provoking induction of erythrocyte lysis in viral HA assay” value in data set [2] is reported as “no”. The “MIC in HA assay” value in data set [7] turned out to be 10.0 ± 0.00 µM (≈ 3.51 µg/mL). In addition, the “sample concentrations provoking prevention of virus-induced hemagglutination in viral HA assay” value in data set [3] is recorded as “no”. Besides, the CC50 at 72 h in data set [4] was 33.4 ± 21.4 µM; in data set [6] it was 41.7 ± 14.6 µM. The IC50 in data set [5] was 97.7 ± 0.46 µM.
Consider `CC(C)=CCC/C(C)=C/Cc1c(O)cc2c(c1O)C(=O)[C@H](O)[C@@H](c1ccc(O)cc1)O2` [Compound 26, bonanniol A], for which, in data set [1] (human), the “sample concentrations provoking induction of erythrocyte lysis in bacterial HA assay” value stood at 100 µM. In addition, in data set [2] (human), the “sample concentrations provoking induction of erythrocyte lysis in viral HA assay” value fell in the range of 31.6 to 100 µM. Besides, the “MIC in HA assay” value in data set [7] was 10.0 ± 0.00 µM (≈ 4.24 µg/mL). In data set [3], the “sample concentrations provoking prevention of virus-induced hemagglutination in viral HA assay” value was “no”. The CC50 at 72 h is 42.2 ± 22.6 µM in data set [4] and 63.2 ± 25.9 µM in data set [6]. This molecule returned a half-maximal inhibitory concentration (IC50) in data set [5] of 63.9 ± 11.1 µM.
Consider `COc1cc(C2CC(=O)c3c(cc(O)c(CC=C(C)C)c3O)O2)ccc1O` (stereo not drawn) [Compound 22, 2,3-dihydro-5,7-dihydroxy-2-(4-hydroxy-3-methoxyphenyl)-6-(3-methyl-2-buten-1-yl)-4H-1-benzopyran-4-one], for which the “sample concentrations provoking induction of erythrocyte lysis in bacterial HA assay” value in data set [1] is “no”. Besides, in data set [2], the “sample concentrations provoking induction of erythrocyte lysis in viral HA assay” value is listed as “no”. Besides, the “MIC in HA assay” value in data set [7] was determined as 31.6 ± 0.00 µM (≈ 11.7 µg/mL). Further, the “sample concentrations provoking prevention of virus-induced hemagglutination in viral HA assay” value in data set [3] is listed as “no”. Further, the CC50 at 72 h is 63.4 ± 8.31 µM in data set [4] and above 100 µM in data set [6]. In data set [5], the IC50 was above 100 µM.
Turning to `COc1cc(C2CC(=O)c3c(O)cc(O)cc3O2)cc(CC=C(C)C)c1O` (stereo not drawn) [Compound 21, 2,3-dihydro-5,7-dihydroxy-2-[4-hydroxy-3-methoxy-5-(3-methyl-2-butenyl)phenyl]-4H-1-benzopyran-4-one], in data set [1], the “sample concentrations provoking induction of erythrocyte lysis in bacterial HA assay” value is reported as “no”. In addition, the “sample concentrations provoking induction of erythrocyte lysis in viral HA assay” value in data set [2] is reported as “no”. Besides, in data set [7], the “MIC in HA assay” value is 65.8 ± 37.5 µM (≈ 24.4 µg/mL). In data set [3], the “sample concentrations provoking prevention of virus-induced hemagglutination in viral HA assay” value is on record as “no”. The CC50 at 72 h was 64.9 ± 1.28 µM in data set [4] and above 100 µM in data set [6]. In data set [5], this molecule returned an IC50 of 45.5 ± 6.06 µM.
As to `CC(C)=CCc1c(O)c(CC=C(C)C)c2c(c1O)C(=O)CC(c1cc(O)cc(O)c1)O2` (stereo not drawn) [Compound 29, 2-(3,5-dihydroxyphenyl)-2,3-dihydro-5,7-dihydroxy-6,8-bis(3-methyl-2-buten-1-yl)-4H-1-benzopyran-4-one], the “sample concentrations provoking induction of erythrocyte lysis in bacterial HA assay” value in data set [1] (human) stood at 100 µM. In data set [2] (human), the “sample concentrations provoking induction of erythrocyte lysis in viral HA assay” value was 100 µM. For the same molecule, in data set [7], the “MIC in HA assay” value was 31.6 ± 0.00 µM (≈ 13.4 µg/mL). Moreover, the “sample concentrations provoking prevention of virus-induced hemagglutination in viral HA assay” value in data set [3] lay in the range of 31.6 to 100 µM. Further, the CC50 at 72 h in data set [4] is 34 ± 7.96 µM; in data set [6] it was 80.6 ± 2.47 µM. Besides, inhibition in data set [5] was half-maximal at 53.1 ± 17.5 µM (IC50).
On to `CC(C)=CCc1c(O)c(CC=C(C)C)c2c(c1O)C(=O)C(c1ccc(O)cc1O)CO2` (stereo not drawn) [Compound 32, orientanol E], for which the “sample concentrations provoking induction of erythrocyte lysis in bacterial HA assay” value in data set [1] (human) was 31.6 to 100 µM. For the same molecule, in data set [2] (human), the “sample concentrations provoking induction of erythrocyte lysis in viral HA assay” value fell in the range of 31.6 to 100 µM. Moreover, the “MIC in HA assay” value in data set [7] was 10.0 ± 0.00 µM (≈ 4.24 µg/mL). Further, in data set [3], the “sample concentrations provoking prevention of virus-induced hemagglutination in viral HA assay” value is reported as “no”. The CC50 at 72 h in data set [4] was 21.4 ± 0.73 µM; in data set [6] it was 79.6 ± 2.77 µM. 26.9 ± 1.85 µM corresponded to half-maximal inhibition in data set [5] (IC50).
In the case of `CC(C)=CCc1c(O)c(CC=C(C)C)c2occ(-c3ccc(O)c(O)c3)c(=O)c2c1O` [Compound 31, 6,8-diprenylorobol], the “sample concentrations provoking induction of erythrocyte lysis in bacterial HA assay” value in data set [1] (human) was found to be 100 µM. For the same molecule, the “sample concentrations provoking induction of erythrocyte lysis in viral HA assay” value in data set [2] (human) was in the range of 31.6 to 100 µM. Also, the “sample concentrations provoking prevention of virus-induced hemagglutination in viral HA assay” value in data set [3] is on record as “no”. The CC50 at 72 h came out at 20 ± 1.53 µM in data set [4] and 47.1 ± 2.83 µM in data set [6]. The same molecule registered a concentration for half-maximal inhibition (IC50) in data set [5] of 37.9 ± 14.6 µM.
